Results as given in patent US20150087856A1, “MELANIN PRODUCTION INHIBITOR” (TAKASAGO INTERNATIONAL CORPORATION, priority 2012, published 2015).

Assays:
Type in all cases: cell-based
B-16 melanoma cells [1] = experiment: Visual Evaluation Test for Melanin Production Inhibition in Pigment Cells; set-up: key to Visual evaluation of melanin production inhibition (whiteness of cell sediment): −: The same as the solvent control (black); +: Slightly different from the solvent control (dark gray); ++: Apparently different from the solvent control (light gray); +++: Cells were not colored (white); conditions: for Visual evaluation of melanin production inhibition (whiteness of cell sediment): B-16 melanoma cells, four days
Protocol: In plastic culture flasks (25 cm^2), B-16 melanoma cells were seeded at 5×10^4 per flask, and cultured in DMEM (Dulbecco's Modified Eagle's Medium) containing 10% serum [Nippon Suisan Kaisha, Ltd, trade name] in the presence of 5% carbon dioxide at a temperature of 37° C. On the next day, each test sample diluted with ethanol was added at concentrations in the medium of 3.13, 6.25, 12.5, 25, and 50 ppm, and the cells were cultured for further four days. After the culturing was finished, the medium was removed, and the cells were rinsed with phosphate buffered solution (hereinafter, referred to as PBS). Then, the cells were detached from each flask by using trypsin-containing PBS, and were harvested from the cell suspension by centrifugation. After the obtained cells were rinsed once with PBS, the whiteness of the sediment was visually observed. Compounds 2A and 2B were used as comparative materials.
Activity: The activity was evaluated by using the following four grades. −: The same as the solvent control (black) +: Slightly different from the solvent control (dark gray) ++: Apparently different from the solvent control (light gray) +++: Cells were not colored (white)

B-16 melanoma cells [2] = experiment: Cell growth ratio in the quantification test (cell count); conditions: 6.25 ppm, two days, relative to control
Protocol: (§1) In plastic culture flasks (25 cm^2), B-16 melanoma cells were seeded at 5×10^4 per flask, and cultured in DMEM containing 10% serum in the presence of 5% carbon dioxide at a temperature of 37° C. After culturing for three days, each test sample diluted with ethanol was added at a concentration in the medium of 6.25 ppm, and the cells were culture for further two days. After the culturing was finished, the medium was removed, and the cells were rinsed with phosphate buffered solution (hereinafter referred to as PBS). Then, the cells were detached from each flask by using trypsin-containing PBS, and harvested from the cell suspension by centrifugation. To the obtained cells, 2 ml of DMEM was added, and the cells were dispersed by gentle pipetting. Of the DMEM, 100 μl was diluted with DMEM to achieve 1×10^4 to 5×10^5 cells/ml. Then, the number of the cells was counted with Scepter™ 2.0 automated cell counter (Merck Millipore), and the cell growth ratio was determined. The cell growth ratio was determined by the following formula.
Cell growth ratio (%)=(number of cells of sample/number of cells of control)×100

B-16 melanoma cells [3] = experiment: Quantification Test for Melanin Production Inhibition in Pigment Cells (melanin inhibition ratio); conditions: 6.25 ppm; for Melanin production inhibition ratio: B-16 melanoma cells, two days; for Melanin production-inhibitory activity compared with arbutin in the quantification test: comparison with arbutin
Protocol: as §1
The rest of the cell suspension was again centrifuged, and the medium was removed. After that, an operation in which the cells were rinsed with 1 ml of very cool 5% trichloroacetic acid and centrifuged was repeated three times, and further the cells were rinsed twice by adding 1 ml of ethanol/ethyl ether (3:1 volume ratio) and centrifuged. Finally, the cells were rinsed once with 1 ml of ethyl ether, centrifuged, and air-dried over night. To the dried cells, 2 N NaOH was added, and melanin in the cells was dissolved in a water bath of 60° C. After cooling, the absorbance at 415 nm was measured by using a microplate reader (BIO-RAD MICROPLATE READER Benchmark-). From the measured value, the amount of melanin per 10^6 cells was calculated by conversion using a standard curve obtained by using synthesized melanin (NACALAI TESQUE, INC.), and the melanin inhibition ratio was determined. The melanin inhibition ratio was determined by the following formula:
Melanin inhibition ratio (%)=[(amount of melanin of control−amount of melanin of sample)/(amount of melanin of control)]×100

Compound | Visual evaluation of melanin production inhibition (whiteness of cell sediment) (B-16 melanoma cells [1]; 3.13 ppm in medium) | Visual evaluation of melanin production inhibition (whiteness of cell sediment) (B-16 melanoma cells [1]; 6.25 ppm in medium) | Visual evaluation of melanin production inhibition (whiteness of cell sediment) (B-16 melanoma cells [1]; 12.5 ppm in medium) | Activity compared with arbutin in the visual evaluation test (B-16 melanoma cells [1]; comparison with arbutin) | Cell growth ratio (B-16 melanoma cells [2]) | Melanin production inhibition ratio (B-16 melanoma cells [3]) | Melanin production-inhibitory activity compared with arbutin in the quantification test (B-16 melanoma cells [3]) | Visual evaluation of melanin production inhibition (whiteness of cell sediment) (B-16 melanoma cells [1]; 25 ppm in medium) | Activity compared with arbutin in the visual evaluation test at 6.25 ppm (B-16 melanoma cells [1]; 6.25 ppm, comparison with arbutin) | Visual evaluation of melanin production inhibition (whiteness of cell sediment) (B-16 melanoma cells [1]; 50 ppm in medium)
2-isopropyl-5-methylcyclohexanols [Compound 1H] | + | ++ | +++ | almost the same activity as that of arbutin | 102.1% | 49.0% | higher melanin production-inhibitory activity than arbutin |  |  | 
CC(C)[C@@H]1CC[C@@H](C)C[C@@H]1O (relative stereo) [Compound 1I, (1S*,2S*,5R*)-2-isopropyl-5-methylcyclohexanol] |  | + | +++ |  |  |  |  |  |  | 
CC(C)[C@H]1CC[C@@H](C)C[C@@H]1O (relative stereo) [Compound 1J, (1S*,2R*,5R*)-2-isopropyl-5-methylcyclohexanol] |  | + | +++ |  |  |  |  |  |  | 
CC(C)[C@H]1CC[C@@H](C)C[C@H]1O (relative stereo) [Compound 1K, (1R*,2R*,5R*)-2-isopropyl-5-methylcyclohexanol] |  | + | +++ |  |  |  |  |  |  | 
OC[C@H]1O[C@@H](Oc2ccc(O)cc2)[C@H](O)[C@@H](O)[C@@H]1O [Arbutin, arbutin, reference compound] | + | ++ | +++ |  | 94.1% | 35.5% |  |  |  | 
C=C(C)[C@@H]1CC[C@@H](C)C[C@H]1O [Compound 1A, (1R,2S,5R)-5-methyl-2-isopropenylcyclohexanol] |  | − | ++ |  |  |  |  | +++ |  | 
CC1CCC(C(C)C)C(OCC(O)CO)C1 (stereo not shown) [Compound 1B, 3-(2-isopropyl-5-methylcyclohexyloxy)propane-1,2-diol] | + | ++ |  |  | 93.2% | 37.0% | higher melanin production-inhibitory activity than arbutin |  |  | 
CC1CCC(C(C)C)C(OCCCO)C1 (stereo not shown) [Compound 1C, 3-(2-isopropyl-5-methylcyclohexyloxy)propan-1-ol] | − | ++ | +++ | almost the same activity as that of arbutin | 103.1% | 52.0% | higher melanin production-inhibitory activity than arbutin |  |  | 
CC(O)CC(=O)OC1CC(C)CCC1C(C)C (stereo not shown) [Compound 1D, 2-isopropyl-5-methylcyclohexyl 3-hydroxybutyrate] | − | ++ | +++ | almost the same activity as that of arbutin | 104.9% | 52.8% | higher melanin production-inhibitory activity than arbutin |  |  | 
CC1CCC(C(C)C)C(OCCOCCO)C1 (stereo not shown) [Compound 1E, 2-(2-(2-isopropyl-5-methylcyclohexyloxy)ethoxy)ethanol] | − | + | ++ |  | 96.4% | 23.3% |  |  |  | 
CC(O)COC1CC(C)CCC1C(C)C (stereo not shown) [Compound 1F, 1-(2-isopropyl-5-methylcyclohexyloxy)propan-2-ol] |  | ++ | +++ | almost the same activity as that of arbutin |  |  |  |  |  | 
CC(=O)CC(=O)OC1CC(C)CCC1C(C)C (stereo not shown) [Compound 1G, 2-isopropyl-5-methylcyclohexyl 3-oxobutyrate] | + | +++ | +++ |  | 87.8% | 41.5% | higher melanin production-inhibitory activity than arbutin |  | higher activity than arbutin | 
CCNC(=O)C1CC(C)CCC1C(C)C (stereo not shown) [Compound 2A, N-ethyl-5-methyl-2-isopropylcyclohexane carboxamide, reference compound] |  | − | + |  |  |  |  | ++ |  | +++
CNC(=O)C(C)(C(C)C)C(C)C [Compound 2B, N,2,3-trimethyl-2-isopropylbutanamide, reference compound] |  |  |  |  |  |  |  | − |  | +
